Experimental findings from article PMC8505397, “Development of peptides targeting receptor binding site of the envelope glycoprotein to contain the West Nile virus infection” (Scientific Reports, 2021) are described below.

Series [1] has as its target T1, interaction between rDIII and ~ 15 kDa receptor of hBMECs (West Nile virus, UniProt P06935).
T1 construct: rDIII – recombinant domain III; made in house; host or cells: E. coli M15
T1 sequence (P06935 584-692 limits assumed): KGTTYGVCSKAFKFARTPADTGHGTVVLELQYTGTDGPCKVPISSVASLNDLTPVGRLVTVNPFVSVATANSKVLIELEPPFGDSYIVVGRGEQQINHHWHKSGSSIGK
Briefly: Blocking of interaction between rDIII and proteins of hBMECs by peptides (Western blot). The series is classed as binding, West Nile virus / human. The following applies: 2.5 µg (0.19 nM) rDIII pre-incubated with tenfold molar excess (1.9 nM) of peptide. Here is the method: First, concentration-dependent ELISA and Western blot were performed to get the minimum concentration of rDIII required to show its interaction with hBMECs proteins. Details are presented in Supplementary Method S12 and Supplementary Method S13. Subsequently, the ability of 7-mer and 12-mer peptides to block the interaction between rDIII and proteins of hBMECs was tested. A tenfold molar excess of peptides was incubated with rDIII for 1 h at room temperature. Such pre-incubated rDIII was subsequently used in the assays. Details of both methods are described in Supplementary Method S12 and Supplementary Method S13. […]
Blocking of interaction between rDIII and proteins of hBMECs by peptides (Western blot).
Two hundred micrograms of proteins extracted from hBMECs were separated on 2-well PAGE […]
gel (12% polyacrylamide gel) and transferred on 0.45 μm nitrocellulose membrane (Amersham Protran; GE Healthcare) for 1 h at 30 V. Details of LDS-PAGE are described in Supplementary Methods S7. The membrane was cut horizontally to obtain proteins of molecular weight between ~10 kDa to ~25 kDa. Subsequently, this membrane was sliced vertically to obtain 0.3 cm strips, which were then used in Western blot (Supplementary Fig.
The NC strips with transblotted hBMECs proteins were first incubated with rDIII at various concentrations to find out the minimal concentration of rDIII required to detect the interaction with hBMECs proteins. Non-specific binding sites were blocked with 1% BSA in 0.05% TBST (pH 7.2) for 1 h at room temperature and constant shaking followed by a washing step for 5 min with 0.05% TBST. The NC strips were incubated with rDIII at different concentrations (5 µg, 2.5 µg, 2 µg, 1 µg, 500 ng) diluted in 1 mL of 0.05% TBST for 3 h at room temperature and constant shaking. After 3 washings with 0.05% TBST, strips were incubated with HisProbe-HRP conjugate (1:5,000 dilution in 0.1% BSA in 0.05% TBST; Thermo Fisher Scientific) for 30 min at room temperature. Six washings, each of 5 min were performed before incubating the strips in SuperSignal chemiluminescence substrate (Thermo Fisher Scientific). The signal was captured on the C-DiGit Blot Scanner (Odyssey CLx, LI-COR Biosciences). For negative control, rDIII was excluded from the above-mentioned protocol.
To block the interaction, the NC strips were blocked as described above.
Simultaneously, 2.5 µg (0.19 nM) of rDIII were pre-incubated with 2.75 µg of each peptide (10-fold molar excess; 1.9 nM) in TBS for 1 h at room temperature. Further on, strips were incubated with pre-incubated rDIII for 3 h at room temperature with constant shaking. After 3 washings with 0.05% TBST, strips were incubated with HisProbe-HRP conjugate as described above. […]
(In western blotting, separated proteins are transferred to a membrane and probed.)

The nature of a further series: Hemolysis assay. The following applies: sheep, red blood cells (washed, in saline); 1 μM and 6 μM; 1 h and 5 h; threshold for hemolytic activity > 10%; read-out: hemolysis, maximum release of the hemoglobin. The series is classed as cell-based. Here is the method: Hemolysis assay was performed according to the method of Bender et al.[94]. Details are presented in Supplementary Method S16. […]
Assessment of the hemolytic activity. Sheep whole blood (10 mL) was centrifuged at 2000 rpm for 5 min at room temperature. The red blood cells (RBCs) were carefully separated from […]
plasma and washed 3 times with saline (0.9% NaCl). The washed RBCs were resuspended in saline (50 mL). Peptides at two different concentrations (1 µM and 6 µM) resuspended in saline solution (100 µL) were added to the RBCs suspension (100 µL). As a positive control (100% lysis), 0.1% Triton X-100 was used. Negative control (0% lysis) was prepared by adding only saline (100 µL) to the RBCs suspension (100 µL). All samples were incubated at 37°C for 1 h and 5 h. The mixtures were gently shaked every 30 min. After incubation, the RBCs were separated by centrifugation (2000 rpm for 5 min) and the supernatant (100 µL) was incubated for 30 min at ambient conditions to oxidize the hemoglobin. The absorbance of oxyhemoglobin present in the supernatant was assessed by absorption at 414 nm. The assay was performed in triplicates. The hemolysis (%) of the RBCs was calculated using the following formula: Hemolysis (%) = [(Asample - xĀ negative control) / xĀ positive control] × 100. […]
(TCID50/ml) exactly as described before1. […]

Regarding `CC[C@H](C)[C@@H]1NC(=O)[C@@H](NC(=O)[C@H](C)N)CSSC[C@@H](C(=O)NCC(=O)NCC(=O)NCC(=O)N[C@@H](CO)C(=O)O)NC(=O)[C@H](C)NC(=O)[C@H](CCCNC(=N)N)NC(=O)[C@H]([C@@H](C)O)NC(=O)[C@H](CO)NC(=O)[C@H](CO)NC(=O)[C@H](Cc2c[nH]cn2)NC1=O` [CP4, CIHSSTRAC], in series [1], the “inhibition of the interaction between rDIII and ~ 15 kDa hBMECs receptor (Western blot)” value is recorded as “inhibition of the interaction was confirmed”. The hemolysis in “Hemolysis assay” was below 0.15%.
